Source: patent US20200061062A1, “INHIBITORS OF HUMAN PHOSPHATIDYLINOSITOL 3-KINASE DELTA” (ICOS Corporation, priority 2000, published 2020)
Like-named read-outs stand apart in the source and are kept apart here.

Experiments:
[1] = tested on: Murine splenocytes (Balb/c); assay: B cell proliferation in response to cell surface IgM stimulation; format: cell-based; details: Mus musculus, Splenocyte; stimulated B cell proliferation; read-out: Mouse BCR Stim (EC50)
Description: In the above experiment, the B cells were stimulated using PANSORBIN®. The effect of D-000 on B cell proliferation response when they were stimulated through their cell surface IgM using anti-IgM antibody also was measured. Murine splenocytes (Balb/c) were plated into 96-well microtiter plates at 2×10^5 cells per well in 10% FBS/RPMI. Appropriate dilutions of test inhibitor in complete medium were added to the cells and the plates were incubated for 30-60 minutes prior to the addition of stimulus. Following the preincubation with test inhibitor an F(ab′)2 preparation of goat antibody specific for the μ-chain of mouse IgM was added to the wells at a final concentration of 25 μg/mL. The plates were incubated at 37° C. for 3 days and 1 μCi of [^3H]-thymidine was added to each well for the final four hours of culture. The plates were harvested onto fiber filters washed and the incorporation of radiolabel was determined using a beta counter (Matrix 96, Packard Instrument Co., Downers Grove, Ill.) and expressed as counts per minute (CPM).
(§1) Using the methods described in Examples 3-5, above, compounds of the invention were tested for inhibitory activity and potency in assays of stimulated B and T cell proliferation, neutrophil (PMN) migration, and neutrophil (PMN) elastase release. In Table 4, the values shown are effective concentrations of the compound (EC50; μM). Where no value is given, no assay was performed.

PI3Kβ [2] = molecular target: T1, PI3Kβ (Homo sapiens, UniProt P42338); assay: Biochemical assay using 200 μM ATP, Beta
T1 construct: His tag (pFastbac HTa vector) (N); FLAG (N); made in house; host or cells: Sf21 insect cells (baculovirus)
Description: (§3) PI3Kδ catalyzes a phosphotransfer from γ-[^32P]ATP to PIP2/PS liposomes at the D3′ position of the PIP2 lipid inositol ring. This reaction is MgCl2 dependent and is quenched in high molarity potassium phosphate buffer pH 8.0 containing 30 mM EDTA. […] The reaction products (and all unlabelled products) are transferred to a 96-well, prewetted PVDF filter plate, filtered, and washed in high molarity potassium phosphate. Scintillant is added to the dried wells and the incorporated radioactivity is quantitated.
(§4) This dilution established a final concentration of 200 μM ATP in the reaction volume. The reaction was stopped with 150 μL quench buffer (1.0 M potassium phosphate pH 8.0, 30 mM EDTA). A portion of the quenched solution (180 μL) was then transferred to a PVDF filter plate (Millipore # MAIP NOB prewetted with sequential 200 μL washes of 100% methanol, water, and finally 1.0 M potassium phosphate pH 8.0 wash buffer).
(§5) The PVDF filter plate was aspirated under moderate vacuum (2-5 mm Hg), washed with 5×200 μL of wash buffer, and then dried by aspiration. The filter was subsequently blotted, allowed to air dry completely, and inserted into a Wallac counting cassette with 50 μL of Ecoscint scintillation cocktail added per well.
(§6) Subsequent selectivity assays were done similarly using the same 3× substrate stocks except they contained 0.05 mCi/mL γ[^32P]ATP and 3 mM PIP2. Subsequent selectivity assays also used the same 3× enzyme stocks, except they now contained 3 nM of any given PI3K isoform.
(§7) For all selectivity assays, the test compounds were weighed out and dissolved into 10-50 mM stocks in 100% DMSO (depending on their respective solubilities) and stored at −20° C. […] From these dilutions, 20 μL was added into the assay wells alongside water blanks used for the enzyme (positive) control and the no enzyme (background) control.
(§8) This selectivity protocol is identical to that described above, except the 3× stock ATP concentration was 600 μM.

PI3Kα [3] = molecular target: T2, PI3Kα (Homo sapiens, UniProt P42336); assay: Biochemical assay using 200 μM ATP, Alpha
T2 construct: His tag (pFastbac HTb vector) (N); FLAG; made in house; host or cells: Sf21 insect cells (baculovirus)
Description: as §3, §4, §5, §6, §7, §8

PI3Kδ [4] = molecular target: T3, PI3Kδ (Homo sapiens, UniProt O00329, S253N); assay: Biochemical assay of PI3K potency and selectivity using 20 μM ATP, Delta; parameters: His tag (pFastbac HTb vector) (N); FLAG; made in house; host or cells: Sf21 insect cells (baculovirus); details: 20 μM ATP; read-out: Delta IC50
Source text: (§2) Recombinant PI3K heterodimeric complexes consisting of a p110 catalytic subunit and a p85 regulatory subunit were overexpressed using the BAC-TO-BAC® HT baculovirus expression system (GIBCO/BRL), and then purified for use in biochemical assays. The four Class I PI 3-kinases were cloned into baculovirus vectors as follows: […]

PI3Kγ [5] = molecular target: T4, PI3Kγ (Homo sapiens, UniProt P48736); assay: Biochemical assay using 200 μM ATP, Gamma
T4 construct: His tag (pFastbac HTb vector) (N); FLAG (N); made in house; host or cells: Sf21 insect cells (baculovirus)

PI3Kγ [6] = molecular target: T4, PI3Kγ; assay: Biochemical assay of PI3K potency and selectivity using 20 μM ATP, Gamma; details: for Gamma/Delta Ratio: ratio of IC50 values
Source text: Recombinant baculoviruses containing the above clones were generated using manufacturer's recommended protocol (Life Technologies). Baculoviruses expressing His-tagged p110α, p110γ, or p110δ catalytic subunit and p85 subunit were coinfected into Sf21 insect cells. To enrich the heterodimeric enzyme complex, an excess amount of baculovirus expressing p85 subunit was infected, and the His-tagged p110 catalytic subunit complexed with p85 was purified on nickel affinity column. […] In an alternate approach, p101 can be cloned into baculovirus, to permit coexpression with its preferred binding partner p110γ. […]

PI3Kβ [7] = molecular target: T1, PI3Kβ; assay: Biochemical assay of PI3K potency and selectivity using 20 μM ATP, Beta; details: 20 μM ATP; for Beta/Delta Ratio: ratio of IC50 values, > = hypothetical ratio with 100 μM substituted for the missing IC50; for IC50: read-out: Beta IC50; for remaining activity at 100 µM: read-out: Beta: percent activity remaining at 100 μM, 100 μM compound did not inhibit by at least 50%
Description: Recombinant PI3K heterodimeric complexes consisting of a p110 catalytic subunit and a p85 regulatory subunit were overexpressed using the BAC-TO-BAC® HT baculovirus expression system (GIBCO/BRL), and then purified for use in biochemical assays. The four Class I PI 3-kinases were cloned into baculovirus vectors as follows:
The 3× substrate for the HTS contained 0.6 mM Na2ATP, 0.10 mCi/mL γ-[^32P]ATP (NEN, Pittsburgh, Pa.), 6 μM PIP2/PS liposomes (Avanti Polar Lipids, Inc., […].), in 20 mM HEPES, pH 7.4.

PI3Kδ [8] = molecular target: T3, PI3Kδ; assay: Biochemical assay using 200 μM ATP, Delta;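 note: radiometric filter-binding assay: PI3Kδ transfers ³²P from γ-[³²P]ATP onto PIP2/PS liposomes, counted by scintillation, enzyme-only wells as positive control, no-enzyme wells as background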
Description: as §3, §4, §5, §6, §7, §8

PI3Kα [9] = molecular target: T2, PI3Kα; assay: Biochemical assay of PI3K potency and selectivity using 20 μM ATP, Alpha; details: for Alpha/Delta Ratio / IC50: 20 μM ATP; for Alpha/Delta Ratio: ratio of IC50 values, > = hypothetical ratio with 100 μM substituted for the missing IC50; for IC50: read-out: Alpha IC50
Source text: as §2

human neutrophils = assay: Elastase exocytosis from neutrophils (fMLP-induced); format: cell-based; details: neutrophil (PMN) elastase release
Description: Aliquots (8 mL) of heparinized blood from healthy volunteers were layered on 3 mL cushions of 7.3% FICOLL® (Sigma, St. Louis, Mo.) and 15.4% HYPAQUE® (Sigma) and centrifuged at 900 rpm for 30 min at room temperature in a table top centrifuge (Beckman). The neutrophil-rich band just above the FICOLL®-HYPAQUE® cushion was collected and washed with Hanks' balanced salt solution (HBSS) containing 0.1% gelatin. Residual erythrocytes were removed by hypotonic lysis with 0.2% NaCl. The neutrophil preparation was washed twice with HBSS containing 0.1% gelatin and used immediately.
In addition to superoxide generation, activated neutrophils also respond by releasing several proteases that are responsible for the destruction of tissues and cartilage during inflammation. As an indication of protease release, the effect of D-000 on elastase exocytosis was measured. Elastase exocytosis was quantitated by modification of the procedure described by Ossanna et al. (J Clin Invest, 77:1939-1951 (1986)), as follows. Purified human neutrophils (0.2×10^6) (treated with either DMSO or a serial dilution of D-000 in DMSO) were stimulated with fMLP in PBS containing 0.01 mg/mL cytochalasin B, 1.0 μM sodium azide (NaN3), 5 μg/mL L-methionine and 1 μM fMLP for 90 min at 37° C. in a 96-well plate. At the end of the incubation period, the plate was centrifuged for 5 min at 1000 rpm, and 90 μL of the supernatant was transferred to 10 μL of 10 mM solution of an elastase substrate peptide, MeO-suc-Ala-Ala-Pro-Val-pNA, wherein MeO-suc=methoxy-succinyl; pNA=p-nitroanilide (Calbiochem, San Diego, Calif.). Absorbance at 410 nm was monitored for 2 hr in a 96-well plate reader. To measure the relative amounts of elastase excytosed, all absorbance values were normalized to the values without any inhibitor. […] Inhibition was half-maximal at a concentration of about 2-3 μM D-000.
as §1

T cell proliferation = assay: Stimulated T cell proliferation (Mouse TCE Stim, Table 4); format: cell-based; details: stimulated T cell proliferation, read-out: Mouse TCE Stim (EC50)
[10] = read-out: percent activity remaining at 100 μM, 20 μM ATP, 100 μM compound did not inhibit by at least 50%

T4 sequence (P48736 whole entry): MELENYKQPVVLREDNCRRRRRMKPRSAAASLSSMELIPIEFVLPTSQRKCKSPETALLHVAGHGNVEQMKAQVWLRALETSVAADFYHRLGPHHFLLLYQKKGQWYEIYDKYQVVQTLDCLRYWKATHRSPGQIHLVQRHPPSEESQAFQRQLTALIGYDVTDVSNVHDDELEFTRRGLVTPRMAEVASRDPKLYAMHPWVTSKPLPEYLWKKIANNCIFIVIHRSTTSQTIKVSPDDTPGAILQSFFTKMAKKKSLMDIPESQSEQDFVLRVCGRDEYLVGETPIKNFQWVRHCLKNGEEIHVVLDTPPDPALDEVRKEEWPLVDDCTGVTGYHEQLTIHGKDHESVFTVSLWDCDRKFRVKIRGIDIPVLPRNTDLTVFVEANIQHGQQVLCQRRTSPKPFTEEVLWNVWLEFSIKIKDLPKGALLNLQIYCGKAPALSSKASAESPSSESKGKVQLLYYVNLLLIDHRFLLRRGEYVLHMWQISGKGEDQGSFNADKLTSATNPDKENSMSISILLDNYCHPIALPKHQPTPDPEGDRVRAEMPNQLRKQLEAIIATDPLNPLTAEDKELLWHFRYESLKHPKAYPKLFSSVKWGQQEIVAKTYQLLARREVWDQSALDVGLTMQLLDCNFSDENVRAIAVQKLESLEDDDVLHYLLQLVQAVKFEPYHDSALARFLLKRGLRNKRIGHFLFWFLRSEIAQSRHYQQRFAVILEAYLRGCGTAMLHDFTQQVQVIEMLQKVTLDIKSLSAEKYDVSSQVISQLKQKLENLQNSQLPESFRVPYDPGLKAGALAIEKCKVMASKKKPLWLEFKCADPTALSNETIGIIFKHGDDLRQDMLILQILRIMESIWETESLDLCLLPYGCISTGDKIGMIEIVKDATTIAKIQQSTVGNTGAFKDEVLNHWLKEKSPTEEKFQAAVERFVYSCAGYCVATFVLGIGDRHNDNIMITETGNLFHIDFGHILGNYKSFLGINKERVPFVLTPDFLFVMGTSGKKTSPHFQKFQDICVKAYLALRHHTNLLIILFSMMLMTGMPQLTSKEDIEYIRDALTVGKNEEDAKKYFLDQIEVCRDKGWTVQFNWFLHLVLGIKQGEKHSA
T1 sequence (P42338 whole entry): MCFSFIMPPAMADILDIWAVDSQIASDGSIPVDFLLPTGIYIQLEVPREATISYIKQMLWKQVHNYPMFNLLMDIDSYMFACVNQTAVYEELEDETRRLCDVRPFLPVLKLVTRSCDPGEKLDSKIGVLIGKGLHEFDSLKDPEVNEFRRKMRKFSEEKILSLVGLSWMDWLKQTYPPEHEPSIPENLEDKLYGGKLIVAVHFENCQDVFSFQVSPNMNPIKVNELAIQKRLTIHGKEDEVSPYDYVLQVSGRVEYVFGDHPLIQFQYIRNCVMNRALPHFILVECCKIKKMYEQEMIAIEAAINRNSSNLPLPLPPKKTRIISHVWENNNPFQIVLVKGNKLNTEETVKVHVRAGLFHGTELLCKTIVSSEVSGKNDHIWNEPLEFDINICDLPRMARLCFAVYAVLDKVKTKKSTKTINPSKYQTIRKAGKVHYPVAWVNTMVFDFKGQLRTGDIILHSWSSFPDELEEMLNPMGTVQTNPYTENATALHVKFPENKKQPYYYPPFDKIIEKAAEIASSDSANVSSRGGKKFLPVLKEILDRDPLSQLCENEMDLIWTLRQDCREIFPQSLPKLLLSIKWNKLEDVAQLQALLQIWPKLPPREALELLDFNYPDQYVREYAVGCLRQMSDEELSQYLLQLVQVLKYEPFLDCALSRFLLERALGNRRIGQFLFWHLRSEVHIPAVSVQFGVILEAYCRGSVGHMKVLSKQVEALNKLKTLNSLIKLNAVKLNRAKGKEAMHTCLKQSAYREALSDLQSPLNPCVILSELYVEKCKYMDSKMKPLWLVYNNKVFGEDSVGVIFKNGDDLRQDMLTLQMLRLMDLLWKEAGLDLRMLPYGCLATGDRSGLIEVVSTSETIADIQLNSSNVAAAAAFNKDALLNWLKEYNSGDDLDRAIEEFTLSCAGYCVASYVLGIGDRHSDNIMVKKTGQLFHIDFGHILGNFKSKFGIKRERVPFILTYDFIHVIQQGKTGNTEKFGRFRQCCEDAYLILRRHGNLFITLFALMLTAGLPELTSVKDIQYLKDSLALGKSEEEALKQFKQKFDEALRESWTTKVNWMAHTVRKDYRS
T1 sequence (P27986 whole entry partner): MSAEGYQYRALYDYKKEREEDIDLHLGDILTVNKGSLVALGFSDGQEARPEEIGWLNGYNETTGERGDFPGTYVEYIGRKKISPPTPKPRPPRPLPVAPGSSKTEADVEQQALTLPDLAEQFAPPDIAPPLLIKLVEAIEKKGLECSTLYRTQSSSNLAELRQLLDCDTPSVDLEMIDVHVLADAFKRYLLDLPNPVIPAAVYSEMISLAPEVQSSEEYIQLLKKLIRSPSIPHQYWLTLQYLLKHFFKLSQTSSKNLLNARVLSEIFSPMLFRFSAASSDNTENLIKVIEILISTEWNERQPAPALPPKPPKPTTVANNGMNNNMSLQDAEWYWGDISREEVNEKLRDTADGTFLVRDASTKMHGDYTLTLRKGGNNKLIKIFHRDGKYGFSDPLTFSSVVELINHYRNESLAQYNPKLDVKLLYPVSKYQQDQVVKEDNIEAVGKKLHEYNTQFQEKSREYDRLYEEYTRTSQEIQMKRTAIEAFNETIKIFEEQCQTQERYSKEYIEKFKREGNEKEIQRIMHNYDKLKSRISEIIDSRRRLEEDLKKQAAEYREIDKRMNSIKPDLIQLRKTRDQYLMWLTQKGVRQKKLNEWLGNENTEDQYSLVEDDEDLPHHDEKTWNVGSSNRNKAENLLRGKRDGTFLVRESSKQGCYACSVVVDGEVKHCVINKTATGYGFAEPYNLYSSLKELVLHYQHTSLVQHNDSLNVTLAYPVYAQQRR
T3 sequence (O00329 whole entry S253N): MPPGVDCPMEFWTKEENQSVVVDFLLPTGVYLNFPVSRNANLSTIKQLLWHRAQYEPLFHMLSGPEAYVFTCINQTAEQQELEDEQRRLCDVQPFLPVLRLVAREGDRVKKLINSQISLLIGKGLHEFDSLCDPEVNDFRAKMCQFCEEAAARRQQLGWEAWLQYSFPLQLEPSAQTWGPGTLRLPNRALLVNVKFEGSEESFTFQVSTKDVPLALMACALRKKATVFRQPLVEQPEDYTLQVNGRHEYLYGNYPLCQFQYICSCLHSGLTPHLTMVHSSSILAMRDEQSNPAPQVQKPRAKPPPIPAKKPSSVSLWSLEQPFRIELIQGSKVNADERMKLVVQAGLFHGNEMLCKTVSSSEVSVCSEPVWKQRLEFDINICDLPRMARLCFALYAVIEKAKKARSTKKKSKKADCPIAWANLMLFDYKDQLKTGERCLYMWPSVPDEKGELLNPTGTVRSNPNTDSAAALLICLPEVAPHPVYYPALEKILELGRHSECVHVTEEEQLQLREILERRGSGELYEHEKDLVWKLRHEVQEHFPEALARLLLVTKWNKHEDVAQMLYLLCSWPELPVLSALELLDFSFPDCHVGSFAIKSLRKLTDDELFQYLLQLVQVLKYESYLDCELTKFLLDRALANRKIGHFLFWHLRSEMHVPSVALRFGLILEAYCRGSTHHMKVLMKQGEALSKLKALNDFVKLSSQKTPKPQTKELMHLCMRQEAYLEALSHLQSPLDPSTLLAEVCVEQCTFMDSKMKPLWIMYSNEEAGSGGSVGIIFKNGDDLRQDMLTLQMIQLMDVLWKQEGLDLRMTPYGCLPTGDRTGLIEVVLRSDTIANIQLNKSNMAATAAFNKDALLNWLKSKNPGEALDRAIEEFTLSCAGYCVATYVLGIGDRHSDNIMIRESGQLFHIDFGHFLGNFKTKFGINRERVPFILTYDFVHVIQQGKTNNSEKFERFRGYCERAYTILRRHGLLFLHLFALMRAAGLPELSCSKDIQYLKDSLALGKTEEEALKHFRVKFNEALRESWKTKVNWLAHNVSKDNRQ
T3 sequence (P27986 whole entry partner): as the sequence (P27986 whole entry partner) above
T2 sequence (P42336 whole entry): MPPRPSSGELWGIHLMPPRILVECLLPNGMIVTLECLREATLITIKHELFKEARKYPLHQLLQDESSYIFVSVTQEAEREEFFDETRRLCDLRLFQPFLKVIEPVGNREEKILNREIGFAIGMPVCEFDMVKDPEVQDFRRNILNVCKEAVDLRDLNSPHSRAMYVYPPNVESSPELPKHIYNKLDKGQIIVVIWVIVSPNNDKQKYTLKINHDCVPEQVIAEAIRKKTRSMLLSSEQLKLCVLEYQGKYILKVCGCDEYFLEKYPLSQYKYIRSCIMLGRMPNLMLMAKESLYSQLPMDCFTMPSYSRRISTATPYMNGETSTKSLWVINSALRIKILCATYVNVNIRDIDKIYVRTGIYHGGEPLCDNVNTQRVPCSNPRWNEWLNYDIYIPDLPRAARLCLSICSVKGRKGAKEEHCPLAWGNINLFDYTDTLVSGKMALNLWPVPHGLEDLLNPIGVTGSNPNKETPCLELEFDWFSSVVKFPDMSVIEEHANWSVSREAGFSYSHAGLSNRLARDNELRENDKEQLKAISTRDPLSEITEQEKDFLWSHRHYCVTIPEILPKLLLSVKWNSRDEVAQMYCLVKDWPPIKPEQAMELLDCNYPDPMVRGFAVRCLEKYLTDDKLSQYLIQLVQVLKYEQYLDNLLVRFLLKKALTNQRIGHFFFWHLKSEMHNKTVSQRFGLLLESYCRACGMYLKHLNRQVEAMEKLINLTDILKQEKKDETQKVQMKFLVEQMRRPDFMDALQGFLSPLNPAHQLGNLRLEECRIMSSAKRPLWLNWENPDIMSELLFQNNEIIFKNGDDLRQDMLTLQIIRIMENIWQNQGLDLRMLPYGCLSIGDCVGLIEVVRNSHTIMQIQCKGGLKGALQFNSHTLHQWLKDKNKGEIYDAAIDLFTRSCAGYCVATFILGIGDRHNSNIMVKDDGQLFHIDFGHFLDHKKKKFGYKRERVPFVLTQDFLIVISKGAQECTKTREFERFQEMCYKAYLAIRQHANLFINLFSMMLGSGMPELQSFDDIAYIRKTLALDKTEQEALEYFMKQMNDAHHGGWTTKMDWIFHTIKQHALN
T2 sequence (P27986 whole entry partner): as the sequence (P27986 whole entry partner) above

Row | Compound | EC50 [1] [µM] | Beta/Delta Ratio (PI3Kβ [2]) | IC50 (PI3Kβ [2]) [µM] | Alpha/Delta Ratio (PI3Kα [3]) | IC50 (PI3Kδ [4]) [µM] | Gamma/Delta Ratio (PI3Kγ [5]) | IC50 (PI3Kγ [5]) [µM] | IC50 (PI3Kγ [6]) [µM] | Gamma/Delta Ratio (PI3Kγ [6]) | Beta/Delta Ratio (PI3Kβ [7]) | IC50 (PI3Kβ [7]) [µM] | melting point | IC50 (PI3Kδ [8]) [µM] | Alpha/Delta Ratio (PI3Kα [9]) | IC50 (PI3Kα [9]) [µM] | EC50 (human neutrophils) [µM] | remaining activity at 100 µM (PI3Kα [9]; [10]) [%] | remaining activity at 100 µM (PI3Kβ [7]) [%] | remaining activity at 100 µM (PI3Kα [9]; read-out: percent activity remaining at 100 μM) [%] | EC50 (T cell proliferation) [µM]
1 | Cc1ccccc1-n1c(CSc2ncnc3[nH]cnc23)nc2cccc(Cl)c2c1=O [Compound D-010, 5-Chloro-2-(9H-purin-6-ylsulfanylmethyl)-3-o-tolyl-3H-quinazolin-4-one] | 0.2 ± 0.1 | 144 | 33 ± 4 | 658 | 0.06 | 27 | 6 ± 3 | 0.7 | 12 | 183 | 11 | 213.9 °C | 0.23 ± 0.2 | 800 | 48 | 0.3 ± 0.3 | – | – | – | –
2 | O=c1c2c(Cl)cccc2nc(CSc2ncnc3[nH]cnc23)n1-c1ccccc1F [Compound D-011, 5-Chloro-3-(2-fluorophenyl)-2-(9H-purin-6-ylsulfanylmethyl)-3H-quinazolin-4-one] | 0.3 ± 0.1 | 420 | 105 ± 35 | 700 | 0.1 | 244 | 61 ± 70 | 1 | 10 | 550 | 55 | 244 °C | 0.25 ± 0.2 | >1,000 | – | 0.9 ± 0.7 | 72 | – | – | –
3 | O=c1c2c(Cl)cccc2nc(CSc2ncnc3[nH]cnc23)n1-c1ccccc1-c1ccccc1 [Compound D-013, 3-Biphenyl-2-yl-5-chloro-2-(9H-purin-6-ylsulfanylmethyl)-3H-quinazolin-4-one] | 1.4 | 289 | – | 461 | 0.05 | 24 | 12 ± 1 | 2.1 | 42 | 260 | 13 | 222 to 222.5 °C (dec.) | 0.51 ± 0.6 | >2,000 | – | – | 71 | – | – | –
4 | O=c1c2cc(F)ccc2nc(CSc2ncnc3[nH]cnc23)n1-c1ccccc1Cl [Compound D-028, 3-(2-Chlorophenyl)-6-fluoro-2-(9H-purin-6-ylsulfanylmethyl)-3H-quinazolin-4-one] | 0.4 ± 0.2 | 101 | – | 125 | 0.18 | 18 | 29 | – | – | 69 | 13 | 232.8 to 233 °C | 1.6 | >556 | – | 1 | 67 | – | – | –
5 | Cc1cccc2nc(CSc3ncnc4[nH]cnc34)n(-c3ccccc3F)c(=O)c12 [Compound D-031, 3-(2-Fluorophenyl)-5-methyl-2-(9H-purin-6-ylsulfanylmethyl)-3H-quinazolin-4-one] | 0.2 ± 0.1 | 707 | 137 ± 23 | 903 | 0.12 | 802 | 155 ± 60 | – | – | 83 | 10 | 151.9 to 152.2 °C | 0.2 ± 0.01 | >833 | 74 | 0.7 ± 0.1 | – | – | – | –
6 | CC(=O)O.O=c1c2ccccc2nc(CSc2ncnc3[nH]cnc23)n1N1CCOCC1 [Compound D-039, 3-morpholin-4-yl-2-(9H-purin-6-ylsulfanylmethyl)-3H-quinazolin-4-one, acetate salt] | 0.9 ± 0.1 | 50 | – | 65 | 0.9 | 44 | – | 38 | 42 | >111 | – | – | 2.6 | >111 | – | 5 | – | 66 | 77 | –
7 | O=c1c2c(F)cccc2nc(CSc2ncnc3[nH]cnc23)n1Cc1ccccc1 [Compound D-043, 3-benzyl-5-fluoro-2-(9H-purin-6-ylsulfanylmethyl)-3H-quinazolin-4-one] | 1.4 | – | – | – | 2.1 | – | – | – | – | >47 | – | – | – | >47 | – | – | 83 | 77 | – | 2.6
8 | COc1ccccc1-n1c(CSc2ncnc3[nH]cnc23)nc2cccc(C)c2c1=O [Compound D-047, 3-(2-methoxyphenyl)-5-methyl-2-(9H-purin-6-ylsulfanylmethyl)-3H-quinazolin-4-one] | 0.3 | 150 | 30 | 810 | 0.09 | 23 | 4.5 | 0.5 | 5.6 | 100 | 9 | – | 0.2 | 333 | 30 | 0.5 ± 0.2 | – | – | – | –
